Assay results taken from patent publication US5750136A, “Bioadhesive composition and patch” (priority 1995, dated 1998).

## C[C@H]1O[C@@H](O[C@H]2[C@@H](O)C[C@H](O[C@H]3[C@@H](O)C[C@H](O[C@H]4CC[C@@]5(C)[C@H](CC[C@@H]6[C@@H]5C[C@@H](O)[C@]5(C)[C@@H](C7=CC(=O)OC7)CC[C@]65O)C4)O[C@@H]3C)O[C@@H]2C)C[C@H](O)[C@@H]1O [digoxin]
From patches of Examples 2-4
  bioavailability of digoxin is substantial for a period: at least 24 h
In words, Table I
  delivery from bioadhesive compositions: delivered in a sustained fashion
